From patent US20100249439A1, “PROCESS FOR CONTROLLED CRYSTAL SIZE IN 1,2-SUBSTITUTED 3,4-DIOXO-1-CYCLOBUTENE COMPOUNDS” (priority 2007, published 2010) come the findings set out here.

The structures appear in SMILES notation.

The nature of the series: Specific cake resistance measurement (pressure filtration of crystal slurry, Tiller equation). It is filed as physicochemical. The protocol: There follows examples of the present invention controlled crystallization process yielding crystalline material having improved filter cake specific resistance. For each of these examples, the filter cake specific resistance was measured in accordance with the following procedure. Specific Cake Resistance Measurement Procedure V(i): Into a pressure filter, the crystal slurry was filled. The filtration was then carried out under a constant pressure while the filtrate volume along with the filtration time was logged. During the cake formation, the relationship between the filtrate volume and the filtration time can be described by the Tiller equation: [formula] where: μ is the viscosity of filtrate, lb/ft-s or Pa·s; α is a specific cake resistance, ft, lb or […]; c is the mass solid deposited in the filter per unit volume of filtrate, lb/ft^3 or kg/m^3: A is the filtration area, ft^2 or m^2; gc is Newton's law proportionality factor; p is the pressure, lbf/ft2 or atm; Rm is the filter-medium resistance, ft^−1 or m^−1. The specific cake resistance a can be calculated from the slope of the linear plot of t/V vs. V.

Turning to `CC[C@@H](Nc1c(Nc2cccc(C(=O)N(C)C)c2O)c(=O)c1=O)c1ccc(C)o1` [compound of Formula I, 2-Hydroxy-N,N-dimethyl-3-[[2-[[1(R)-(5-methyl-2-furanyl)propyl]amino]-3,4-dioxo-1-cyclobuten-1-yl]amino]benzamide], the “filter cake specific resistance” value is, setting by setting: (Form 4 crystals precipitated from the reaction mixture of Scheme IIa steps a and b, conventional crystallization without temperature cycling) “about 8.0×10^11 m/kg”; (Form 4 monohydrate crystals from n-propanol/water after seeding and temperature cycling (Va: 4 cycles 53-20° C.; Vb: 8 cycles; Vc: 19 cycles 43-20° C.), listed as Example Va) 6.4×10^11 m/Kg; (Form 4 monohydrate crystals from n-propanol/water after seeding and temperature cycling (Va: 4 cycles 53-20° C.; Vb: 8 cycles; Vc: 19 cycles 43-20° C.), listed as Example Vb) 2.5×10^11 m/Kg; (Form 4 monohydrate crystals from n-propanol/water after seeding and temperature cycling (Va: 4 cycles 53-20° C.; Vb: 8 cycles; Vc: 19 cycles 43-20° C.), listed as Example Vc) 1.99×10^11 m/Kg.
